According to patent US9102752B2, “Peptide vaccine for prevention and immunotherapy of dementia of the Alzheimer's type” (United Biomedical, Inc., priority 2013, dated 2015):

Experiments:
[1] = test system: anti-Aβ antibodies in sera from vaccinated baboons; experiment: Epitope mapping, 10-mer peptide-based ELISA with sera from vaccinated baboons; settings: peptide as plate coating
Experimental: Fine specificity analyses of anti-Aβ antibodies in immunized hosts or vaccines were determined by epitope mapping.
These nested peptides were used individually to coat microtiter wells as solid-phase immunoadsorbents for ELISA tests. The positive control ELISA plate was coated with Aβ1-28. They were tested for antibody binding with the sera from the four immunized baboons, from weeks 0, 10, 84 and 111. Baboon sera were serially diluted and assayed on plates coated with a 10-mer peptide at 5 ug/mL.

baboon anti-Aβ antibody = experiment: Epitope mapping by competitive inhibition ELISA with hyperimmune baboon sera; type: binding, baboons
[2] = peptide concentration 0.5 μg/mL

Substance	ELISA Titer titers (Log10) ([1]; 0 weeks post immunization)	ELISA Titer titers (Log10) ([1]; 10 weeks post immunization)	ELISA Titer titers (Log10) ([1]; 84 weeks post immunization)	ELISA Titer titers (Log10) ([1]; 111 weeks post immunization)	Percent (%) Inhibition ELISA after peptide pre-absorption of sera (baboon anti-Aβ antibody; [2])	Percent (%) Inhibition ELISA after peptide pre-absorption of sera (baboon anti-Aβ antibody; peptide concentration 1 μg/mL)	Percent (%) Inhibition ELISA after peptide pre-absorption of sera (baboon anti-Aβ antibody; peptide concentration 2 μg/mL)	Percent (%) Inhibition ELISA after peptide pre-absorption of sera (baboon anti-Aβ antibody; peptide concentration 8 μg/mL)	Percent (%) Inhibition ELISA after peptide pre-absorption of sera (baboon anti-Aβ antibody; peptide concentration 32 μg/mL)
9 (EEISEVKMDA) [Peptide 9]	0.24 Log10	0.30 Log10	0.21 Log10	0.22 Log10	–	–	–	–	–
16 (MDAEFRHDSG) [Peptide 16]	0.26 Log10	0.32 Log10	0.16 Log10	0.17 Log10	–	–	–	–	–
19 (FRHDSGYEVH) [Peptide 19]	0.20 Log10	0.40 Log10	0.22 Log10	0.30 Log10	–	–	–	–	–
21 (HDSGYEVHHQ) [Peptide 21]	0.21 Log10	0.40 Log10	0.18 Log10	1.14 Log10	–	–	–	–	–
18 (EFRHDSGYEV) [Peptide 18]	0.24 Log10	0.30 Log10	0.18 Log10	0.18 Log10	–	–	–	–	–
12 (SEVKMDAEFR) [Peptide 12]	0.21 Log10	0.24 Log10	0.16 Log10	0.13 Log10	–	–	–	–	–
11 (ISEVKMDAEF) [Peptide 11]	0.20 Log10	0.20 Log10	0.15 Log10	0.13 Log10	–	–	–	–	–
10 (EISEVKMDAE) [Peptide 10]	0.23 Log10	0.25 Log10	0.16 Log10	0.14 Log10	–	–	–	–	–
8 (TEEISEVKMD) [Peptide 8]	0.23 Log10	0.26 Log10	0.16 Log10	0.15 Log10	–	–	–	–	–
28 (HHQKLVFFAE) [Peptide 28]	0.19 Log10	0.22 Log10	0.13 Log10	0.12 Log10	–	–	–	–	–
15 (KMDAEFRHDS) [Peptide 15]	0.26 Log10	0.36 Log10	0.41 Log10	0.51 Log10	–	–	–	–	–
22 (DSGYEVHHQK) [Peptide 22]	0.32 Log10	0.78 Log10	0.64 Log10	0.76 Log10	–	–	–	–	–
20 (RHDSGYEVHH) [Peptide 20]	0.23 Log10	0.34 Log10	0.27 Log10	0.41 Log10	–	–	–	–	–
14 (VKMDAEFRHD) [Peptide 14]	0.27 Log10	0.46 Log10	0.48 Log10	0.55 Log10	–	–	–	–	–
23 (SGYEVHHQKL) [Peptide 23]	0.13 Log10	0.49 Log10	0.51 Log10	0.78 Log10	–	–	–	–	–
SEQ ID NO: 18: EFRHD SGYEV (EFRHDSGYEV; PEPTIDE (1)..(10) Abeta 3-12 or APP 770(E674-V683); listed as Homo sapiens) [Aβ3-12]	–	–	–	–	1%	0%	0%	0%	3%
24 (GYEVHHQKLV) [Peptide 24]	0.13 Log10	0.27 Log10	0.19 Log10	0.12 Log10	–	–	–	–	–
13 (EVKMDAEFRH) [Peptide 13]	0.19 Log10	0.23 Log10	0.16 Log10	0.14 Log10	–	–	–	–	–
SEQ ID NO: 17: AEFRH DSGYE (AEFRHDSGYE; PEPTIDE (1)..(10) Abeta 2-11 or APP 770(A673-E682); listed as Homo sapiens) [Aβ2-11]	–	–	–	–	0%	0%	0%	6%	19%
SEQ ID NO: 16: MDAEF RHDSG (MDAEFRHDSG; PEPTIDE (1)..(10) Abeta -1-9 or APP 770(M671-G680); listed as Homo sapiens) [Aβ-1-9]	–	–	–	–	9%	4%	8%	17%	39%
25 (YEVHHQKLVF) [Peptide 25]	0.16 Log10	0.43 Log10	0.15 Log10	0.22 Log10	–	–	–	–	–
17 (AEFRHDSGYE) [Peptide 17]	0.25 Log10	0.35 Log10	0.25 Log10	0.19 Log10	–	–	–	–	–
29 (HQKLVFFAED) [Peptide 29]	0.18 Log10	0.21 Log10	0.13 Log10	0.13 Log10	–	–	–	–	–
